Test: Phase I safety assessment: adverse events (CTCAE v5.0) in patients
[1] = 50-mg dose level cohort, 2 of 3
[2] = Dose Level 1: 50 mg BID (N = 3)
[3] = Dose Level 2: 100 mg BID (N = 3)
[4] = Dose Level 3: 200 mg BID (N = 7)

Description: A DLT was defined as a study treatment-related adverse event (TRAE), according to the Common Terminology Criteria for Adverse Events (CTCAE, Version 5.0), with qualifying criteria for certain DLTs (e.g., Grade ≥ 3 diarrhea, was included as a DLT only if lasting >48 h and unresponsive to intensive antidiarrheal medication).
Patients were closely monitored for these potential toxicities during the current study. Safety assessments included recording of AEs and serious AEs (SAEs) from the time of signing the study informed consent form to 30 days after the last dose of study medication. Safety parameters including laboratory evaluations (hematology, coagulation, chemistry, and urinalysis), vital sign measurements and body weight, electrocardiogram (ECG) recordings, ECOG performance status, echocardiogram or multi-gated acquisition (MUGA), and physical examination were assessed at screening, during the study and at 30 days following the last dose. The use of concomitant medications was permitted and details for such medications were recorded.

C=CC(=O)N1CCC[C@@H](n2nc(C(=O)Nc3ccc(CC(=O)N(C)C)c(C)c3C)c3c(N)ncnc32)C1 [TAS0728]
28.6%: Patients with asthenia (200-mg dose, 2/7) | Patients with decreased appetite (200-mg dose, 2/7) | Patients with dry skin (200-mg dose, 2/7) | Patients with edema peripheral (200-mg dose, 2/7) | Patients with hypokalemia (200-mg dose, 2/7) | Patients with nausea (200-mg dose, 2/7) | Patients with vomiting (200-mg dose, 2/7)
66.7%: Patients with diarrhea [1] | Patients with hyperuricemia [1]
4 (57.1) n, (%): Patients with Grade ≥ 3 AEs (200 mg BID (N = 7)) | Patients with treatment-related and Grade ≥ 3 AEs (200 mg BID (N = 7))
3 (42.9) n (%): Anemia, Grade 2 [4] | Cough, Grade 1 [4] | Cough, Total [4] | Dermatitis acneiform, Total [4]
2 (33.3) n, (%): Patients with treatment-related and Grade ≥ 3 AEs (150 mg BID (N = 6))
6 (100) n, (%): Patients with AEs (150 mg BID (N = 6))
100%: Patients with diarrhea (all Grade 1 or Grade 2) (100-mg dose level cohort, all 3)
1 (33.3) n (%): Adverse events experienced in ≥10% patients, Grade 2 [2] | Adverse events experienced in ≥10% patients, Grade 4 [2] | Diarrhea, Grade 2 [2] | Diarrhea, Grade 3 [2] | Diarrhea, ≥Grade 3 [2] | Diarrhea, Grade 2 [3]
3 (100) n, (%): Patients with AEs (50 mg BID (N = 3)) | Patients with treatment-related AEs (50 mg BID (N = 3)) | Patients with AEs (100 mg BID (N = 3)) | Patients with treatment-related AEs (100 mg BID (N = 3))
6 (85.7) n (%): Adverse events experienced in ≥10% patients, Grade 1 [4]
5 (71.4) n (%): Anemia, Total [4]
7 (100) n (%): Adverse events experienced in ≥10% patients, Grade 2 [4] | Adverse events experienced in ≥10% patients, Total [4]
2 (28.6) n (%): Anemia, Grade 1 [4] | Asthenia, Grade 1 [4] | Asthenia, Total [4] | Decreased appetite, Total [4] | Dermatitis acneiform, Grade 1 [4]
1 (14.3) n (%): Anemia, Grade 3 [4] | Anemia, ≥Grade 3 [4] | Asthenia, Grade 2 [4] | Decreased appetite, Grade 1 [4] | Decreased appetite, Grade 2 [4] | Dermatitis acneiform, Grade 2 [4]
6 (85.7) n, (%): Patients with treatment-related AEs (200 mg BID (N = 7))
0 n (%): Adverse events experienced in ≥10% patients, Grade 5 [2] | Diarrhea, Grade 4 [2] | Diarrhea, Grade 5 [2] | Hyperuricemia, Grade 2 [2] | Hyperuricemia, Grade 3 [2] | Hyperuricemia, Grade 4 [2] | Hyperuricemia, Grade 5 [2] | Hyperuricemia, ≥Grade 3 [2] | Adverse events experienced in ≥10% patients, Grade 3 [3] | Adverse events experienced in ≥10% patients, Grade 4 [3] | Adverse events experienced in ≥10% patients, Grade 5 [3] | Adverse events experienced in ≥10% patients, ≥Grade 3 [3] | Diarrhea, Grade 3 [3] | Diarrhea, Grade 4 [3] | Diarrhea, Grade 5 [3] | Diarrhea, ≥Grade 3 [3] | Adverse events experienced in ≥10% patients, Grade 4 [4] | Adverse events experienced in ≥10% patients, Grade 5 [4] | Anemia, Grade 4 [4] | Anemia, Grade 5 [4] | Asthenia, Grade 3 [4] | Asthenia, Grade 4 [4] | Asthenia, Grade 5 [4] | Asthenia, ≥Grade 3 [4] | Cough, Grade 2 [4] | Cough, Grade 3 [4] | Cough, Grade 4 [4] | Cough, Grade 5 [4] | Cough, ≥Grade 3 [4] | Decreased appetite, Grade 3 [4] | Decreased appetite, Grade 4 [4] | Decreased appetite, Grade 5 [4] | Decreased appetite, ≥Grade 3 [4] | Dermatitis acneiform, Grade 3 [4] | Dermatitis acneiform, Grade 4 [4] | Dermatitis acneiform, Grade 5 [4]
3: Patients with diarrhea at a severity ≥Grade 3 (200-mg dose)
5.3%: Treatment discontinuation due to AEs (1 patient of 19) | Treatment discontinuation due to fatal cardiac arrest (1 patient of 19)
1 (33.3) n, (%): Patients with SAEs (50 mg BID (N = 3)) | Patients with AEs that led to study treatment discontinuation (100 mg BID (N = 3))
1 (14.3) n, (%): Patients with AEs that led to study treatment discontinuation (200 mg BID (N = 7))
3 (100) n (%): Adverse events experienced in ≥10% patients, Grade 1 [2] | Adverse events experienced in ≥10% patients, Total [2] | Adverse events experienced in ≥10% patients, Grade 1 [3] | Adverse events experienced in ≥10% patients, Total [3] | Diarrhea, Grade 1 [3] | Diarrhea, Total [3]
3 (50.0) n, (%): Patients with Grade ≥ 3 AEs (150 mg BID (N = 6))
42.9%: Patients with cough (200-mg dose, 3/7) | Patients with dermatitis acneiform (200-mg dose, 3/7) | Patients with fatigue (200-mg dose, 3/7) | Patients with pyrexia (200-mg dose, 3/7)
3 (42.9) n, (%): Patients with SAEs (200 mg BID (N = 7))
4 (57.1) n (%): Adverse events experienced in ≥10% patients, Grade 3 [4] | Adverse events experienced in ≥10% patients, ≥Grade 3 [4]
one: Patients with fatal cardiac arrest (Grade 5) (150 mg BID, after 1 cycle (21 days))
7 (100) n, (%): Patients with AEs (200 mg BID (N = 7))
2: Patients who worsened to an ECOG status of 2 (1 in each of the 200-mg and 150-mg BID cohorts, ECOG 1 at baseline)
0 n, (%): Patients with AEs that had an outcome of death (50 mg BID (N = 3)) | Patients with AEs that led to study treatment discontinuation (50 mg BID (N = 3)) | Patients with treatment-related and Grade ≥ 3 AEs (50 mg BID (N = 3)) | Patients with AEs that had an outcome of death (100 mg BID (N = 3)) | Patients with Grade ≥ 3 AEs (100 mg BID (N = 3)) | Patients with SAEs (100 mg BID (N = 3)) | Patients with treatment-related and Grade ≥ 3 AEs (100 mg BID (N = 3)) | Patients with AEs that had an outcome of death (200 mg BID (N = 7))
85.7%: Patients with diarrhea (200-mg dose, 6 of 7)
4 (66.7) n, (%): Patients with SAEs (150 mg BID (N = 6))
2 (66.7) n, (%): Patients with Grade ≥ 3 AEs (50 mg BID (N = 3))
1: Patients with diarrhea at a severity ≥Grade 3 (50-mg dose level cohort)
71.4%: Patients with anemia (200-mg dose, 5/7)
1 (16.7) n, (%): Patients with AEs that had an outcome of death (150 mg BID (N = 6)) | Patients with AEs that led to study treatment discontinuation (150 mg BID (N = 6))
5 (83.3) n, (%): Patients with treatment-related AEs (150 mg BID (N = 6))
2 (66.7) n (%): Adverse events experienced in ≥10% patients, Grade 3 [2] | Adverse events experienced in ≥10% patients, ≥Grade 3 [2] | Diarrhea, Grade 1 [2] | Diarrhea, Total [2] | Hyperuricemia, Grade 1 [2] | Hyperuricemia, Total [2] | Adverse events experienced in ≥10% patients, Grade 2 [3]

Source: publication PMC8426237, “A first-in-human phase I study of TAS0728, an oral covalent binding inhibitor of HER2, in patients with advanced solid tumors with HER2 or HER3 aberrations” (Investigational New Drugs, 2021)
